Laboratory results taken from the supplement of paper PMC10307832.

Assays:
Experiment in all cases: relative viability (nuclei count vs DMSO), 5 days (fraction); higher = more cells survive
[1] = compound: CS(=O)(=O)c1ccc(-c2cnc(N)c(C(=O)Nc3ccccc3)n2)cc1 [VE-821] + C[C@@H](Oc1cc(-c2cnn(C3CCNCC3)c2)cnc1N)c1c(Cl)ccc(F)c1Cl [Crizotinib] (partner 1 µM)
Outline: (§1)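 One day after seeding in 1536-well plates, lung cancer cell lines were dosed by pin tool. Dosing was either single-drug or a fixed anchor-drug dose plus five library-drug doses (not always all listed) in √10 steps. After 5 days, nuclei were stained in one fix-and-stain step and counted on 4× images, and relative viability is the nuclei count of treated wells over that of vehicle wells, given as the median of duplicate plates.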

[2] = compound: CS(=O)(=O)c1ccc(C(=O)Nc2ccc(Cl)c(-c3ccccn3)c2)c(Cl)c1 [Vismodegib] + O=C(c1cc(Cc2n[nH]c(=O)c3ccccc23)ccc1F)N1CCN(C(=O)C2CC2)CC1 [Olaparib] (partner 8 µM)
Outline: as §1

[3] = compound: CS(=O)(=O)c1ccc(C(=O)Nc2ccc(Cl)c(-c3ccccn3)c2)c(Cl)c1 [Vismodegib] + CS(=O)(=O)N1CCN(Cc2cc3nc(-c4cccc5[nH]ncc45)nc(N4CCOCC4)c3s2)CC1 [Pictilisib] (partner 1 µM)
Outline: as §1

[4] = compound: CS(=O)(=O)c1ccc(-c2cnc(N)c(C(=O)Nc3ccccc3)n2)cc1 [VE-821] + CC(=O)Nc1cccc(-n2c(=O)n(C3CC3)c(=O)c3c(Nc4ccc(I)cc4F)n(C)c(=O)c(C)c32)c1 [Trametinib] (partner 0.02 µM)
Outline: as §1

Cell Line	relative viability ([1]; first compound 0.08 µM)	relative viability ([1]; first compound 0.253 µM)	relative viability ([1]; first compound 0.8 µM)	relative viability ([1]; first compound 2.53 µM)	relative viability ([1]; first compound 8 µM)	relative viability ([2]; first compound 0.08 µM)	relative viability ([2]; first compound 0.253 µM)	relative viability ([2]; first compound 0.8 µM)	relative viability ([2]; first compound 2.53 µM)	relative viability ([2]; first compound 8 µM)	relative viability ([3]; first compound 0.08 µM)	relative viability ([3]; first compound 0.253 µM)	relative viability ([3]; first compound 0.8 µM)	relative viability ([3]; first compound 2.53 µM)	relative viability ([3]; first compound 8 µM)	relative viability ([4]; first compound 0.08 µM)	relative viability ([4]; first compound 0.253 µM)	relative viability ([4]; first compound 0.8 µM)	relative viability ([4]; first compound 2.53 µM)	relative viability ([4]; first compound 8 µM)
COR-L 105	1.03	0.678	0.582	0.546	0.385	0.605	0.64	0.69	0.698	0.537	0.383	0.371	0.445	0.401	0.453	0.463	0.412	0.483	0.4	0.449
EMC-BAC-2	0.899	0.763	0.737	0.731	0.651	0.523	0.488	0.487	0.472	0.526	0.541	0.516	0.588	0.529	0.461	0.925	0.856	0.984	1.02	0.966
NCI-H1666	1.03	1.06	1.1	0.895	0.635	0.679	0.747	0.727	0.732	0.749	0.341	0.41	0.42	0.434	0.537	0.833	0.809	0.867	0.718	0.85
H3255	1.05	0.981	0.761	1.03	0.847	0.586	0.554	0.516	0.54	0.517	0.483	0.481	0.479	0.471	0.471	0.666	0.646	0.619	0.88	0.63
NCI-H1755	0.969	0.841	0.69	0.835	0.722	0.863	0.884	0.897	0.843	0.852	0.43	0.406	0.471	0.448	0.449	0.86	0.737	0.781	0.711	0.741
LOU-NH91	0.74	0.772	0.757	0.754	0.752	0.873	0.907	0.936	0.904	0.917	0.556	0.515	0.516	0.482	0.532	0.813	0.784	0.776	0.821	0.752
NCI-H1975	1.02	0.944	0.777	0.758	0.652	0.736	0.788	0.788	0.83	0.791	0.294	0.311	0.264	0.304	0.307	0.359	0.37	0.199	0.352	0.227
